Tested on: high cardiovascular risk patients with hypercholesterolemia
Experiment: ODYSSEY LONG TERM: lipid efficacy of alirocumab 150 mg Q2W vs placebo
Type: in vivo, human
Details: intention-to-treat, Week 78 (final analysis)

Substance: Alirocumab: human anti-PCSK9 antibody; HCVR SEQ ID NO:1, LCVR SEQ ID NO:6; CDRs SEQ ID NOs 2/3/4/7/8/10
- Percent decrease in LDL cholesterol: 52%

Source: patent US20160137746A1, “METHODS FOR TREATING HIGH CARDIOVASCULAR RISK PATIENTS WITH HYPERCHOLESTEROLEMIA” (Sanofi Biotechnology, priority 2014, published 2016)
